In ChEMBL document CHEMBL6071147, “A novel 7-phenoxy-benzimidazole derivative as a potent and orally available BRD4 inhibitor for the treatment of melanoma” (Bioorg Med Chem, 2024):
pIC50: −log10 of the molar value.

Biological target: Bromodomain testis-specific protein (Homo sapiens, UniProt Q58F21)
Assay: Displacement of [Lys(5,8,12,16)Ac]H4(1 to 21)-biotin from BRDT-BD1 (unknown origin) by TR-FRET assay

- pIC50: 7.66
SMILES: Cn1cc(-c2ccc3nc(C4CCOCC4)[nH]c3c2Oc2ccccc2)ccc1=O
